Test results published in PubChem BioAssay AID330 (DTP/NCI, 2004).
Several values for one entry are separate records, joined by “and”; a condition that tells them apart may be missing. Equal values may be shown once. Toxic doses and inconclusive results are not listed.

System: P388 leukemia ip, CD2F1 mice, survival T/C
Assay: NCI In Vivo Anticancer Drug Screen. Data for tumor model P388 Leukemia (intraperitoneal) in CD2F1 (CDF1) mice
Conditions: endpoint: median survival time, higher = longer survival
Method in brief: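 Mice carrying the transplanted tumor received test compound or vehicle. Survival was recorded in each group, and the value is the treated-group measurement divided by that of the vehicle-treated control group.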

[1] = dose: 50.0 mg/kg/injection, schedule: Q01DX009 (ip), vehicle: saline
[2] = dose: 100.0 mg/kg/injection, schedule: Q01DX009 (ip), vehicle: saline
[3] = dose: 25.0 mg/kg/injection, schedule: Q01DX009 (ip), vehicle: saline with Tween-80
[4] = dose: 50.0 mg/kg/injection, schedule: Q01DX009 (ip), vehicle: saline with Tween-80
[5] = dose: 100.0 mg/kg/injection, schedule: Q01DX009 (ip), vehicle: saline with Tween-80
[6] = dose: 200.0 mg/kg/injection, schedule: Q01DX009 (ip), vehicle: saline with Tween-80
[7] = dose: 50.0 mg/kg/injection, schedule: Q01DX005 (ip), vehicle: saline with Tween-80
[8] = dose: 100.0 mg/kg/injection, schedule: Q01DX005 (ip), vehicle: saline with Tween-80
[9] = dose: 200.0 mg/kg/injection, schedule: Q01DX005 (ip), vehicle: saline with Tween-80
[10] = dose: 50.0 mg/kg/injection, schedule: Q01DX005 (ip), vehicle: Klucel (hydroxypropylcellulose) (HPC)
[11] = dose: 100.0 mg/kg/injection, schedule: Q01DX005 (ip), vehicle: Klucel (hydroxypropylcellulose) (HPC)
[12] = dose: 200.0 mg/kg/injection, schedule: Q01DX005 (ip), vehicle: Klucel (hydroxypropylcellulose) (HPC)

CCOC(=O)C1C(c2cc(OC)c(OC)c(OC)c2)c2cc3c(cc2OC1(C)N1CCCC1)OCO3 (stereo not drawn)
T/C (dose: 60.0 mg/kg/injection, schedule: Q01DX005 (ip), vehicle: Klucel (hydroxypropylcellulose) (HPC)): 97 % of control
T/C (dose: 120.0 mg/kg/injection, schedule: Q01DX005 (ip), vehicle: Klucel (hydroxypropylcellulose) (HPC)): 96 % of control
T/C (dose: 240.0 mg/kg/injection, schedule: Q01DX005 (ip), vehicle: Klucel (hydroxypropylcellulose) (HPC)): 96 % of control

CN(C)CCCNCC#CCNCCCN(C)C
T/C [1]: 100 % of control
T/C [2]: 105 % of control
T/C (dose: 200.0 mg/kg/injection, schedule: Q01DX009 (ip), vehicle: saline): 105 % of control

CCC1(CC)COC(C)(C(=O)O)OC1
T/C [3]: 102 % of control
T/C [4]: 102 % of control
T/C [5]: 94 % of control
T/C [6]: 96 % of control

CCCCCCC(/C=C/c1ccc(Cl)c(Cl)c1)=N\Nc1c(F)c(F)c(F)c(F)c1F
T/C [4]: 86 % of control
T/C [5]: 99 % of control
T/C [6]: 98 % of control

O=C(O)CCCc1ccc2c(c1)OCO2
T/C [7]: 113 % of control
T/C [8]: 98 % of control
T/C [9]: 106 % of control

Nc1ccc(N)cc1
T/C (dose: 5.0 mg/kg/injection, schedule: Q01DX009 (ip), vehicle: saline with Tween-80): 95 % of control
T/C (dose: 5.0 mg/kg/injection, schedule: Q04DX003 (ip), vehicle: saline with Tween-80): 104 % of control
T/C (dose: 10.0 mg/kg/injection, schedule: Q01DX009 (ip), vehicle: saline with Tween-80): 100 % of control
T/C (dose: 10.0 mg/kg/injection, schedule: Q04DX003 (ip), vehicle: saline with Tween-80): 104 % of control
T/C (dose: 20.0 mg/kg/injection, schedule: Q01DX009 (ip), vehicle: saline with Tween-80): 100 % of control
T/C (dose: 20.0 mg/kg/injection, schedule: Q04DX003 (ip), vehicle: saline with Tween-80): 104 % of control

COc1ccccc1/C=C(\C(=O)O)c1ccccc1
T/C [10]: 96 % of control
T/C [11]: 91 % of control

CC1=CC(=O)NC1O (stereo not drawn)
T/C (dose: 2.5 mg/kg/injection, schedule: Q01DX010 (ip), vehicle: saline): 104 % of control
T/C (dose: 5.0 mg/kg/injection, schedule: Q01DX010 (ip), vehicle: saline): 95 % of control
T/C (dose: 10.0 mg/kg/injection, schedule: Q01DX010 (ip), vehicle: saline): 90 % of control
T/C (dose: 15.0 mg/kg/injection, schedule: Q01DX010 (ip), vehicle: saline): 95 % of control
T/C (dose: 23.0 mg/kg/injection, schedule: Q01DX009 (ip), vehicle: saline): 95 % of control
T/C (dose: 35.0 mg/kg/injection, schedule: Q01DX009 (ip), vehicle: saline): 86 % of control
T/C [1]: 104 % of control

CN(Cc1ccc(Nc2ccccc2)cc1)C1CCCCC1
T/C (dose: 50.0 mg/kg/injection, schedule: Q01DX009 (ip), vehicle: saline + Tween-80 + alcohol): 103 % of control and 106 % of control
T/C (dose: 100.0 mg/kg/injection, schedule: Q01DX009 (ip), vehicle: saline + Tween-80 + alcohol): 110 % of control and 111 % of control
T/C (dose: 200.0 mg/kg/injection, schedule: Q01DX009 (ip), vehicle: saline + Tween-80 + alcohol): 109 % of control and 112 % of control
T/C (dose: 400.0 mg/kg/injection, schedule: Q01DX009 (ip), vehicle: saline + Tween-80 + alcohol): 114 % of control

CCCN(CCC)C(=O)[S-].CCCN(CCC)C(=O)[S-].[Ni+2]
T/C (dose: 12.5 mg/kg/injection, schedule: Q01DX009 (ip), vehicle: saline with Tween-80): 90 % of control
T/C [3]: 109 % of control

Cn1cnc([N+](=O)[O-])c1C(=O)O
T/C [1]: 107 % of control
T/C [2]: 89 % of control

CC1CCCC2C(c3ccccc3)OCN12 (stereo not drawn)
T/C (dose: 50.0 mg/kg/injection, schedule: Q01DX005 (ip), vehicle: saline): 108 % of control
T/C (dose: 100.0 mg/kg/injection, schedule: Q01DX005 (ip), vehicle: saline): 111 % of control
T/C (dose: 200.0 mg/kg/injection, schedule: Q01DX005 (ip), vehicle: saline): 109 % of control

O=C(O)c1cccc2cccc(-c3c4ccc(=O)cc-4oc4cc(O)ccc34)c12
T/C (dose: 60.0 mg/kg/injection, schedule: Q01DX005 (ip), vehicle: saline with Tween-80): 101 % of control
T/C (dose: 120.0 mg/kg/injection, schedule: Q01DX005 (ip), vehicle: saline with Tween-80): 100 % of control
T/C (dose: 240.0 mg/kg/injection, schedule: Q01DX005 (ip), vehicle: saline with Tween-80): 98 % of control

CNc1onc(C)c1C
T/C [4]: 103 % of control
T/C [5]: 105 % of control
T/C [6]: 100 % of control

CCC(C)(C)C(=O)Nc1cccc(OC(=O)NC)c1
T/C [3]: 100 % of control
T/C [4]: 92 % of control
T/C [5]: 101 % of control

[CH3][Sn]1([Cl])[O]CCNCC[O]1
T/C (dose: 25.0 mg/kg/injection, schedule: Q01DX005 (ip), vehicle: Klucel (hydroxypropylcellulose) (HPC)): 102 % of control and 97 % of control
T/C [10]: 98 % of control and 100 % of control and 92 % of control
T/C [11]: 101 % of control and 109 % of control and 94 % of control
T/C [12]: 102 % of control and 103 % of control

CC(=O)c1c(-c2ccc(Cl)cc2)c(-c2ccc(Cl)cc2)nn(C(C)CO)c1=O (stereo not drawn)
T/C [7]: 103 % of control
T/C [8]: 100 % of control
T/C [9]: 97 % of control

O=S1(=O)CC(Cl)(Cl)C1
T/C [7]: 102 % of control
T/C [8]: 109 % of control

Cc1[nH]c(=O)[nH]c(=O)c1C(=O)O
T/C [4]: 100 % of control
T/C [5]: 105 % of control
T/C [6]: 99 % of control

ON(C(=S)c1ccccc1)c1ccccc1
T/C [7]: 105 % of control
T/C [8]: 102 % of control
T/C [9]: 102 % of control

CCOC(=O)CC1=CSC(=C(C(=O)OCC)C(=O)OCC)N1c1ccccc1
T/C [7]: 96 % of control
T/C [8]: 91 % of control
T/C [9]: 86 % of control

O=C(O)c1cn(C2CCCCC2)c(=O)[nH]c1=O
T/C [7]: 99 % of control
T/C [8]: 92 % of control
T/C [9]: 92 % of control

CCOP(=S)(N/N=C/c1c(CO)cnc(C)c1O)OCC
T/C [10]: 98 % of control
T/C [11]: 102 % of control
T/C [12]: 101 % of control

COC(=O)[C@@H]1C(=O)[C@H](C(=O)OC)C2CCCC3CCCC1N32 (stereo partly drawn)
T/C [7]: 98 % of control
T/C [8]: 98 % of control

CCOC(=O)C(Cc1ccc(N(CCCl)CCCl)cc1)NC=O (stereo not drawn)
T/C (dose: 6.25 mg/kg/injection, schedule: Q04DX003 (ip), vehicle: saline with Tween-80): 150 % of control
T/C (dose: 12.5 mg/kg/injection, schedule: Q04DX003 (ip), vehicle: saline with Tween-80): 154 % of control
T/C [3]: 181 % of control
T/C [4]: 209 % of control
T/C (dose: 50.0 mg/kg/injection, schedule: Q04DX003 (ip), vehicle: saline with Tween-80): 181 % of control
T/C [5]: 100 % of control
T/C (dose: 100.0 mg/kg/injection, schedule: Q04DX003 (ip), vehicle: saline with Tween-80): 204 % of control and 216 % of control
T/C (dose: 200.0 mg/kg/injection, schedule: Q04DX003 (ip), vehicle: saline with Tween-80): 91 % of control

Cc1cc2cc3c(C)cc(=O)oc3c(C)c2o1
T/C [5]: 118 % of control
T/C [6]: 112 % of control
T/C (dose: 400.0 mg/kg/injection, schedule: Q01DX009 (ip), vehicle: saline with Tween-80): 102 % of control

CCCCCCCCC1SC1CCCCCCCC(=O)OCC1CS1 (stereo not drawn)
T/C (dose: 100.0 mg/kg/injection, schedule: Q01DX001 (ip), vehicle: other): 100 % of control
T/C (dose: 200.0 mg/kg/injection, schedule: Q01DX001 (ip), vehicle: other): 100 % of control
T/C (dose: 400.0 mg/kg/injection, schedule: Q01DX001 (ip), vehicle: other): 100 % of control

CCCCCCCCn1c(Cl)c(C(=O)O)c2ccccc21
T/C (dose: 100.0 mg/kg/injection, schedule: Q01DX001 (ip), vehicle: Klucel (hydroxypropylcellulose) (HPC)): 95 % of control
T/C (dose: 200.0 mg/kg/injection, schedule: Q01DX001 (ip), vehicle: Klucel (hydroxypropylcellulose) (HPC)): 86 % of control
T/C (dose: 400.0 mg/kg/injection, schedule: Q01DX001 (ip), vehicle: Klucel (hydroxypropylcellulose) (HPC)): 86 % of control

CCCC/C=C/[Se]c1ccccc1
T/C [3]: 101 % of control
T/C [4]: 151 % of control
T/C [5]: 109 % of control

O=c1c2cc3ccccc3cc2c(=O)n2n1CC(O)C(Br)C2 (stereo not drawn)
T/C (dose: 25.0 mg/kg/injection, schedule: Q01DX009 (ip), vehicle: DMSO): 101 % of control
T/C (dose: 50.0 mg/kg/injection, schedule: Q01DX009 (ip), vehicle: DMSO): 105 % of control
T/C (dose: 100.0 mg/kg/injection, schedule: Q01DX009 (ip), vehicle: DMSO): 105 % of control

C=CC1(OC)CC1C(=O)OCC (stereo not drawn)
T/C (dose: 43.0 mg/kg/injection, schedule: Q01DX005 (ip), vehicle: Klucel (hydroxypropylcellulose) (HPC)): 99 % of control
T/C (dose: 86.0 mg/kg/injection, schedule: Q01DX005 (ip), vehicle: Klucel (hydroxypropylcellulose) (HPC)): 112 % of control
T/C (dose: 172.0 mg/kg/injection, schedule: Q01DX005 (ip), vehicle: Klucel (hydroxypropylcellulose) (HPC)): 97 % of control
